Assay results as given in patent US4670460A, “Inhibiting lipoxygenase with pyrazolone derivatives” (Bayer Aktiengesellschaft, priority 1983, dated 1987).

Key:
lipoxygenase [1] = biological target: T1, lipoxygenase (Homo sapiens, UniProt P09917); test: Inhibition of LTB4 biosynthesis (lipoxygenase-inhibiting action) in human PMN leucocytes stimulated with ionophor A 23187; assay type: cell-based; details: 0.25 h; for inhibition at 10 µg/mL: concentration 10^-5 g/ml; for inhibition at 1 µg/mL: concentration 10^-6 g/ml
T1 construct: endogenous in cells; host or cells: human PMN leucocytes isolated from heparinized blood
T1 sequence (P09917 1-674): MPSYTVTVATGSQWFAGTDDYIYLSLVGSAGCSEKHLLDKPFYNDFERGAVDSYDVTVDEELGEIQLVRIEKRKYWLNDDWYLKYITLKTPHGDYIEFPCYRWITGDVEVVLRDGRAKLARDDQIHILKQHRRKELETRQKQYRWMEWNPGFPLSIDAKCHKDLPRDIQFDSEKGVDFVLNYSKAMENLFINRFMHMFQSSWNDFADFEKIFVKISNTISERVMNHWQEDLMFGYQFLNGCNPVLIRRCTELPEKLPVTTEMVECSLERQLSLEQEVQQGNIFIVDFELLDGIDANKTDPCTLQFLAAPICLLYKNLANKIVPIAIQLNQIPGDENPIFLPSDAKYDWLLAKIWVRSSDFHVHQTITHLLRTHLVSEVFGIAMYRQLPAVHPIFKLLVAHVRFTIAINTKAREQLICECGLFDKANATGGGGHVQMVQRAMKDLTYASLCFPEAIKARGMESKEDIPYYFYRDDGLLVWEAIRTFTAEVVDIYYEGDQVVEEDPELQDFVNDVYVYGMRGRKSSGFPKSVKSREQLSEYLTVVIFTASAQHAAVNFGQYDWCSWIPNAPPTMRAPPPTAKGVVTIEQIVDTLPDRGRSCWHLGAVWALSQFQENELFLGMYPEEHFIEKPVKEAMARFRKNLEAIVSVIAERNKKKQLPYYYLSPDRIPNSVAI
Description: The human PMN leucocytes (>95%) used in the present example were obtained from heparinized complete blood by dextran sedimentation and subsequent density gradient separation (Ficoll-Paque) (compare A. Boyum, Scand. J. Immunol., 5, Suppl. 5, 9, 1976).
2×10^7 cells/ml were suspended in Dulbecco phosphate buffer containing Ca^2+ and were incubated with radioactively labelled arachidonic acid and the calcium ionophor A 23187 in the presence or absence of lipoxygenase inhibitor. After 15 minutes, the labelled lipoxygenase products were extracted from the acidified incubation medium and were separated by thin layer chromatography using a mobile phase mixture suitable for the leukotrienes (5-HETE-LTB4) (compare B. Jakschik et al., Biochem. Biophys. Res. Commun., 102, 624, 1981).
The distribution of the activity amongst the various metabolites was measured by a thin layer scanner. It is a measure of the lipoxygenase-inhibiting action of a test substance at a certain concentration.
The lipoxygenase metabolites were also additionally determined independently by means of high pressure liquid chromatography. This method enables the endogenous arachidonic acid metabolism to be studied with the aid of UV detection of the leukotrienes. In this method, the cells were treated as described above, with the exception that no radioactively labelled arachidonic acid was added exogenously. The high pressure liquid chromatography was carried out on Lichrosorb RP-18 (5 μm) columns. The mobile phase was methanol/water/glacial acetic acid 69/31/0.01. The flow rate was 1 ml/minute. Leukotriene B4 was determined at 280 nm and the HETE derivatives were determined at 232 nm, in each case by means of UV absorption.

[2] = Antithrombotic action (prophylaxis of thromboses); assay type: in vivo; details: dose increased 100 times in comparison with nafazatrom
leucocytes = test: Leucocyte stickiness, hamster cheek pouch venule; assay type: in vivo, Syrian golden hamsters
Description: The number of leucocytes which pass a certain section of a vessel serves as a simple model for measuring the stickiness of leucocytes (Bray, M. A. et al., Prostaglandins 22, 213 (1981)). The number of leucocytes counted will be greater, the lower the stickiness of the cells.
The pyrazolone derivatives described below were investigated in this model.
Male Syrian golden hamsters (80-100 g) were anaesthetized with Nembutal (i.p.; 60 mg/kg). After insertion of a PE 10 catheter into the a. femoralis, the animal was laid on a Duling dissecting platform (MVR 5, 423 (1973)) and the right cheek pouch was withdrawn by inserting a Q-Tip. It was carefully drawn into the envisaged part of the platform, stretched and fixed.
From the start of the dissection, 5 ml/minute of Superfusat flowedover the prepared cheek pouch. The temperature of the solution was 36° C. While treating the vessels with care, the upper layer tissue was separated longitudinally and folded back to the side. Under about 200-fold magnification, an area of about 1 cm^2 of connective tissue was carefully exposed. The animal was placed on the object stand of a microscope, together with the dissecting platform. A thermocouple was inserted into the left cheek pouch. The body temperature of the animal was thus monitored and kept at 36±0.3° C. with the aid of an IR lamp (250 watt).
The leucocyte stickiness was measured at about 500-fold magnification. A venule (30-40 μm .phi.) was selected in the exposed area. The number of leucocytes per unit time (minutes) which migrate past a certain section of this vessel were counted.
Intra-arterial administration of the pyrazolone derivatives in 1% strength aqueous Tylose suspension led to the following results: […]

[3] = test system: 15-hydroxyprostaglandin dehydrogenase; details: Wong and McGiff 1982; cited from earlier work
[4] = test system: endogenous prostacyclin (PGI2) from the vascular endothelium; details: Vermylen 1979, Chamone 1981, McIntyre and Salzman 1981; cited from earlier work
lipoxygenase [5] = details: Busse et al. 1982; cited from earlier work

Compound	inhibition at 10 µg/mL (lipoxygenase [1]) [%]	inhibition at 1 µg/mL (lipoxygenase [1]) [%]	also measured
CC(C)CC1=NN(CCOc2ccc3ccccc3c2)C(=O)C1	100	100	
CC1=NN(CCOc2cccc3ccccc23)C(=O)C1	100	62	
CCC1=NN(CCOc2ccc3c(Br)cccc3c2)C(=O)C1C (stereo not drawn)	100	100	
CCCCC1C(=O)N(CCOc2ccc3c(Br)cccc3c2)N=C1C (stereo not drawn)	100	68	
Cc1cc(OC(=O)c2ccc3ccccc3c2)n(C(C)c2ccc(Cl)c(Cl)c2)n1 (stereo not drawn)	46		
CCCCCCC1C(=O)N(CCOc2ccc3ccccc3c2)N=C1C (stereo not drawn)	100	93	
O=C1CC(c2ccccc2)=NN1CCCc1ccccc1	100	81	
O=C1CC(C2CCCCC2)=NN1CCCc1ccccc1	100	71	
CC1=NN(CCOc2ccc(Cl)c(C)c2)C(=O)C1	100	43	
CC1=NN(C(C)c2ccc(Cl)c(Cl)c2)C(=O)C1Cc1ccccc1 (stereo not drawn)	100		
CC1=NN(CCOc2ccc3ccccc3c2)C(=O)C1C1C(=O)N(CCOc2ccc3ccccc3c2)N=C1C (stereo not drawn)	50		
Cc1cc(OC(=O)c2ccc(Cl)cc2)n(C(C)c2ccc(Cl)c(Cl)c2)n1 (stereo not drawn)	80		
O=C1CC(CO)=NN1CCOc1ccc2ccccc2c1	80		
CC(=O)OCC1=NN(CCOc2ccc3ccccc3c2)C(=O)C1	82	36	
COCC1=NN(CCOc2ccc3ccccc3c2)C(=O)C1	93	40	
CC1=NN(CCOc2ccc3ccccc3c2)C(=O)C1C (stereo not drawn) [3,4-dimethyl derivative]			Effect in the prophylaxis of thromboses [2]: no effect can be detected
O=C1CC(Cc2ccccc2)=NN1CCOc1ccc2ccccc2c1 [Compound 3-benzyl]			Effect in the prophylaxis of thromboses [2]: no effect can be detected
CC(C)C1=NN(CCOc2ccc3ccccc3c2)C(=O)C1 [Compound 3-isopropyl]			Effect in the prophylaxis of thromboses [2]: no effect can be detected
CCCC1=NN(CCOc2ccc3ccccc3c2)C(=O)C1 [Compound 3-n-propyl]			Effect in the prophylaxis of thromboses [2]: no effect can be detected
CC1=NN(CCOc2ccccc2-c2ccccc2)C(=O)C1 [Compound 4]			Duration of action (leucocytes; dose 0.1 mg/kg intra-arterial): 40 min; Increase in Leucocyte number (%) (leucocytes; dose 0.1 mg/kg intra-arterial): 35%
CCC1C(=O)N(CCOc2ccc3c(Br)cccc3c2)N=C1C (stereo not drawn) [Compound 5]			Duration of action (leucocytes; dose 1 mg/kg intra-arterial): 30 to 50 min; Increase in Leucocyte number (%) (leucocytes; dose 1 mg/kg intra-arterial): 200%
CC1=NN(CCc2cccc3ccccc23)C(=O)C1 [Compound 6]			Duration of action (leucocytes; dose 1 mg/kg intra-arterial): 20 to 30 min; Increase in Leucocyte number (%) (leucocytes; dose 1 mg/kg intra-arterial): 30%
CC1=NN(CCOc2ccccc2-c2ccccc2)C(=O)C1 [drawing 18]	100	75	
CCC1C(=O)N(CCOc2ccc3c(Br)cccc3c2)N=C1C (stereo not drawn) [drawing 20]	100	100	
CC1=NN(CCOc2ccc3ccccc3c2)C(=O)C1C (stereo not drawn) [drawing 22]	100	83	
CC1=NN(CCc2cccc3ccccc23)C(=O)C1 [drawing 28]	100	58	
CC1=NN(CCOc2ccc3ccccc3c2)C(=O)C1 [drawing 34, reference compound]	100	58	
CC1=NN(CCOc2ccc3ccccc3c2)C(=O)C1 [nafazatrom, 3-methyl-1-[2-(2-naphthyloxy)-ethyl]-2-pyrazolin-5-one]			Blockade of 15-hydroxyprostaglandin dehydrogenase, the PGI2-degrading enzyme [3]: blocks; Stimulation of endogenous prostacyclin (PGI2) from the vascular endothelium [4]: can act as a stimulator; Inhibition of lipoxygenase activity (lipoxygenase [5]): inhibits lipoxygenase activity
